Reference: the NIST ThermoML archive (doi:10.1021/acs.jced.6b00192)

Settings: Liquid, Vibrating tube method

CCCCOCCO [2-butoxyethan-1-ol]
mass density [kg/m3]
Settings | 283.15 K | 293.15 K | 303.15 K | 313.15 K | 323.15 K | 333.15 K | 343.15 K | 353.15 K | 363.15 K
100 kPa | 907.9 | 900.5 | 891.8 | 883.5 | 874 | 865.6 | 856.5 | 847.5 | 838.2
1000 kPa | 908.3 | 900.6 | 892.1 | 884 | 875 | 866.1 | 857.4 | 848.4 | 839.4
3000 kPa | 909.9 | 902.2 | 893.9 | 885.6 | 876.5 | 868 | 859.3 | 850.5 | 841.4
5000 kPa | 911 | 903.2 | 895.4 | 887.1 | 878.1 | 869.5 | 861.1 | 852.2 | 843.4
10000 kPa | 914.2 | 906.8 | 898.9 | 890.7 | 881.9 | 873.5 | 865.1 | 856.7 | 847.9
15000 kPa | 917.1 | 910 | 902 | 894.1 | 885.5 | 877.3 | 869.1 | 860.9 | 852.6
20000 kPa | 920 | 912.9 | 905.5 | 897.3 | 889.1 | 880.9 | 873.2 | 864.8 | 856.4
25000 kPa | 922.8 | 915.9 | 908.7 | 900.7 | 892.1 | 884.4 | 876.5 | 868.7 | 860.4
30000 kPa | 925.6 | 918.8 | 911.8 | 903.6 | 895.4 | 887.6 | 880.1 | 872.3 | 864.4
35000 kPa | 928.4 | 921.4 | 914.5 | 906.7 | 898.5 | 890.8 | 883.5 | 875.9 | 868.1
40000 kPa | 930.9 | 924 | 916.7 | 909.4 | 901.6 | 894 | 886.7 | 879.2 | 871.8
50000 kPa | 935.7 | 929.5 | 921.8 | 915.1 | 907.3 | 900.1 | 893 | 885.6 | 878.4
60000 kPa | 940.5 | 933.9 | 927.1 | 920.1 | 912.9 | 905.7 | 898.6 | 891.8 | 884.8

CCCCOCCOCCO [3,6-dioxa-1-decanol]
mass density [kg/m3]
Settings | 283.15 K | 293.15 K | 303.15 K | 313.15 K | 323.15 K | 333.15 K | 343.15 K | 353.15 K | 363.15 K
100 kPa | 960.4 | 952.4 | 943.8 | 935.5 | 927 | 917.8 | 909.1 | 901.1 | 892.6
1000 kPa | 961.3 | 952.9 | 944.2 | 935.9 | 927.3 | 918.7 | 910.5 | 902.1 | 893.2
3000 kPa | 962.6 | 954.3 | 946 | 937.2 | 928.8 | 920.7 | 912.35 | 903.9 | 894.9
5000 kPa | 963.4 | 955.2 | 947 | 938.8 | 930.3 | 922.2 | 913.6 | 905.3 | 896.7
10000 kPa | 966.5 | 958.4 | 950.3 | 942 | 933.8 | 925.7 | 917.6 | 909.3 | 900.4
15000 kPa | 969.4 | 961.2 | 953 | 945.2 | 937.2 | 929.2 | 921.3 | 913.1 | 904.8
20000 kPa | 971.9 | 964 | 956 | 948.4 | 940.4 | 932.5 | 924.7 | 916.8 | 908.5
25000 kPa | 974.5 | 966.9 | 959.1 | 951.2 | 943.5 | 935.5 | 928.1 | 920.3 | 912.1
30000 kPa | 977.1 | 969.6 | 962 | 953.8 | 946.4 | 939 | 931.3 | 923.7 | 915.7
35000 kPa | 979.1 | 972 | 964.7 | 956.9 | 949.5 | 942 | 934.4 | 927.1 | 919.2
40000 kPa | 981.4 | 974.4 | 967.1 | 959.7 | 952.5 | 945.2 | 937.3 | 930.3 | 922.7
50000 kPa | 986.9 | 979.7 | 972.2 | 965 | 958.2 | 950.6 | 943.2 | 936.3 | 929.1
60000 kPa | 990.4 | 983.9 | 977.1 | 969.7 | 963.4 | 956 | 948.8 | 942.2 | 935.2

CCCCOCCOCCOCCCC [5,8,11-trioxapentadecane]
mass density [kg/m3]
Settings | 283.15 K | 293.15 K | 303.15 K | 313.15 K | 323.15 K | 333.15 K | 343.15 K | 353.15 K | 363.15 K
100 kPa | 891.3 | 882.9 | 874.5 | 866.1 | 857.2 | 849.1 | 840.4 | 832.4 | 823.4
1000 kPa | 891.8 | 883.1 | 875.1 | 866.41 | 858.2 | 850 | 841.7 | 833 | 824.8
3000 kPa | 893.2 | 884.8 | 876.6 | 868.1 | 859.8 | 851.6 | 843.5 | 835.1 | 827.1
5000 kPa | 894.3 | 885.9 | 878.2 | 869.8 | 861.5 | 853.3 | 845.5 | 836.7 | 828.7
10000 kPa | 897.7 | 889.6 | 881.8 | 873.5 | 865.4 | 857.5 | 849.8 | 841.4 | 833.5
15000 kPa | 900.9 | 892.9 | 885.2 | 877.2 | 869.2 | 861.4 | 853.7 | 846 | 838.4
20000 kPa | 904.3 | 896.1 | 888.42 | 880.7 | 873.1 | 865.4 | 857.9 | 850.3 | 842.8
25000 kPa | 906.9 | 899.3 | 891.8 | 884.1 | 876.5 | 869 | 861.6 | 854 | 846.8
30000 kPa | 909.9 | 902.3 | 894.9 | 887.1 | 879.8 | 872.6 | 865.3 | 857.9 | 850.9
35000 kPa | 912.8 | 905.1 | 897.9 | 890.5 | 883.1 | 875.9 | 868.9 | 861.6 | 854.9
40000 kPa | 915.3 | 907.9 | 900.8 | 893.3 | 886.3 | 879.5 | 872.3 | 865.1 | 858.5
50000 kPa | 920.5 | 913.6 | 906.4 | 899.4 | 892.4 | 885.5 | 878.9 | 871.5 | 865.6
60000 kPa | 925.4 | 918.2 | 911.8 | 904.9 | 898.8 | 891.6 | 884.7 | 878.2 | 872
